Source: patent US20250099474A1 (priority 2022, published 2025)

Tests used:
SARS-CoV-2 [1] = test: Phase 2/3 study, Phase 2b Part: score of 12 COVID-19 symptoms per unit time; assay type: in vivo, human; details: for Change from baseline up to 120 hours in total score of 12 COVID-19 symptoms per unit time: Adjusted mean value by covariance analysis (standard error) / Change from baseline up to 120 hours in total score of 12 COVID-19 symptoms per unit time: Difference of adjusted mean value from that of placebo group (standard error) / Change from baseline up to 120 hours in total score of 12 COVID-19 symptoms per unit time: Maximum value / Change from baseline up to 120 hours in total score of 12 COVID-19 symptoms per unit time: Mean value / Change from baseline up to 120 hours in total score of 12 COVID-19 symptoms per unit time: Median value / Change from baseline up to 120 hours in total score of 12 COVID-19 symptoms per unit time: Minimum value: mild/moderate patients, ITT1 population
Protocol: The primary endpoints of Phase 2b Part were the time-weighted average change in the total score of 12 COVID-19 symptoms per unit time from the start of the first administration (Day 1) to 120 hours (Day 6), and the change from baseline in SARS-CoV-2 virus titer on Day 4, in mild/moderate SARS-CoV-2-infected patients, and the clinical improvement and the antiviral effect of the active drug were confirmed.
The administration of the active drug is repeated oral administration once a day for 5 days. The 375/125 mg group received 375 mg on Day 1 as a loading dose and 125 mg on Days 2 to 5 as a maintenance dose. The 750/250 mg group received 750 mg on Day 1 as a loading dose and 250 mg on Days 2 to 5 as a maintenance dose.
The primary efficacy endpoints of Phase 2b Part for mild/moderate SARS-CoV-2-infected patients were the time-weighted average change in the total score of 12 COVID-19 symptoms per unit time from the start of the first administration (Day 1) to 120 hours (Day 6), and the change from baseline in SARS-CoV-2 virus titer on Day 4. The total score of 12 COVID-19 symptoms is the sum of the scores determined by evaluation in four grades (0: none, 1: mild, 2: moderate, 3: severe) in the subject daily records for each of the 12 COVID-19 symptoms (low energy and tiredness, muscle or body aches, headache, chills or shivering, feeling hot or feverish, stuffy and runny nose, sore throat, cough, shortness of breath (difficulty breathing), nausea, vomiting, diarrhea).
Pairwise comparison was performed between each active drug dose group and the placebo group. […] Pairwise comparison was performed between each active drug dose group and the placebo group.
The results of classifying the twelve COVID-19 symptoms shown in the above (2-a) into 5 types (acute symptoms, major clinical symptoms, respiratory symptoms, systemic symptoms, and gastrointestinal symptoms) and analyzing the same (ITT population) are shown in the following table. • Acute symptoms: sore throat, cough, feeling hot and feverish • Major clinical symptoms: stuffy and runny nose, sore throat, cough, chills or shivering, feeling hot or feverish • Respiratory symptoms: stuffy and runny nose, sore throat, cough, shortness of breath (difficulty breathing) • Systemic symptoms: low energy and tiredness, muscle or body aches, headache, chills or shivering, feeling hot or feverish • Gastrointestinal symptoms: nausea, vomiting, diarrhea

SARS-CoV-2 [2] = test: Phase 2/3 study, Phase 2a Part: COVID-19 symptom score and exacerbation (Ordinal scale); assay type: in vivo, human; details: mild/moderate patients
Protocol: The 750/250 mg group received 750 mg on Day 1 as a loading dose and 250 mg on Days 2 to 5 as a maintenance dose.

SARS-CoV-2 [3] = test: Cytopathic effect (CPE) suppression effect confirmation test using VeroE6/TMPRSS2 cells; assay type: cell-based
[4] = ITT population, 750/250 mg group

SMILES: Cn1cnc(Cn2c(=O)[nH]/c(=N\c3cc4cn(C)nc4cc3Cl)n(Cc3cc(F)c(F)cc3F)c2=O)n1 [(6E)-6-[(6-chloro-2-methyl-2H-indazol-5-yl)imino]-3-[(1-methyl-1H-1,2,4-triazol-3-yl)methyl]-1-[(2,4,5-trifluorophenyl)methyl]-1,3,5-triazinane-2,4-dione]
- Change from baseline up to 120 hours in sub-total score per unit time, major clinical symptoms: Minimum value (SARS-CoV-2 [1]; [4]): −10.11
- Change from baseline up to 120 hours in sub-total score per unit time, respiratory symptoms: Adjusted mean value by covariance analysis (standard error) (SARS-CoV-2 [1]; [4]): −2.16 (0.12)
- Change from baseline up to 120 hours in sub-total score per unit time, respiratory symptoms: Difference of adjusted mean value from that of placebo group (standard error) (SARS-CoV-2 [1]; [4]): −0.44 (0.15)
- Change from baseline up to 120 hours in sub-total score per unit time, respiratory symptoms: Maximum value (SARS-CoV-2 [1]; [4]): 2.29
- Change from baseline up to 120 hours in sub-total score per unit time, respiratory symptoms: Mean value (SARS-CoV-2 [1]; [4]): −2.33
- Change from baseline up to 120 hours in sub-total score per unit time, respiratory symptoms: Median value (SARS-CoV-2 [1]; [4]): −2.30
- Change from baseline up to 120 hours in sub-total score per unit time, respiratory symptoms: Minimum value (SARS-CoV-2 [1]; [4]): −6.34
- Change from baseline up to 120 hours in sub-total score per unit time, systemic symptoms: Adjusted mean value by covariance analysis (standard error) (SARS-CoV-2 [1]; [4]): −3.16 (0.14)
- Change from baseline up to 120 hours in sub-total score per unit time, systemic symptoms: Difference of adjusted mean value from that of placebo group (standard error) (SARS-CoV-2 [1]; [4]): 0.30 (0.17)
- Change from baseline up to 120 hours in sub-total score per unit time, systemic symptoms: Maximum value (SARS-CoV-2 [1]; [4]): 2.71
- Change from baseline up to 120 hours in sub-total score per unit time, systemic symptoms: Mean value (SARS-CoV-2 [1]; [4]): −3.19
- Change from baseline up to 120 hours in sub-total score per unit time, systemic symptoms: Median value (SARS-CoV-2 [1]; [4]): −2.81
- Change from baseline up to 120 hours in sub-total score per unit time, systemic symptoms: Minimum value (SARS-CoV-2 [1]; [4]): −9.66
- Change from baseline up to 120 hours in total score of 12 COVID-19 symptoms per unit time: Adjusted mean value by covariance analysis (standard error) (SARS-CoV-2 [1]; 375/125 mg group): −5.37 (0.24)
- Change from baseline up to 120 hours in total score of 12 COVID-19 symptoms per unit time: Difference of adjusted mean value from that of placebo group (standard error) (SARS-CoV-2 [1]; 375/125 mg group): −0.24 (0.30)
- Change from baseline up to 120 hours in total score of 12 COVID-19 symptoms per unit time: Maximum value (SARS-CoV-2 [1]; 375/125 mg group): 2.43
- Change from baseline up to 120 hours in total score of 12 COVID-19 symptoms per unit time: Mean value (SARS-CoV-2 [1]; 375/125 mg group): −5.95
- Change from baseline up to 120 hours in total score of 12 COVID-19 symptoms per unit time: Median value (SARS-CoV-2 [1]; 375/125 mg group): −5.40
- Change from baseline up to 120 hours in total score of 12 COVID-19 symptoms per unit time: Minimum value (SARS-CoV-2 [1]; 375/125 mg group): −20.37
- Change from baseline up to 120 hours in total score of 12 COVID-19 symptoms per unit time: Adjusted mean value by covariance analysis (standard error) (SARS-CoV-2 [1]; 750/250 mg group): −5.17 (0.23)
- Change from baseline up to 120 hours in total score of 12 COVID-19 symptoms per unit time: Difference of adjusted mean value from that of placebo group (standard error) (SARS-CoV-2 [1]; 750/250 mg group): −0.04 (0.29)
- Change from baseline up to 120 hours in total score of 12 COVID-19 symptoms per unit time: Maximum value (SARS-CoV-2 [1]; 750/250 mg group): 2.47
- Change from baseline up to 120 hours in total score of 12 COVID-19 symptoms per unit time: Mean value (SARS-CoV-2 [1]; 750/250 mg group): −5.42
- Change from baseline up to 120 hours in total score of 12 COVID-19 symptoms per unit time: Median value (SARS-CoV-2 [1]; 750/250 mg group): −4.92
- Change from baseline up to 120 hours in total score of 12 COVID-19 symptoms per unit time: Minimum value (SARS-CoV-2 [1]; 750/250 mg group): −18.16
- Exacerbation rate (Ordinal scale deteriorated to 3 or more for the first time) (SARS-CoV-2 [2]; 375/125 mg group): 0.0%
- Number of exacerbations/number of cases to be analyzed (SARS-CoV-2 [2]; 375/125 mg group): 0/13
- Change from baseline in total score of 12 COVID-19 symptoms compared to placebo group (SARS-CoV-2 [2]; 375/125 mg group and 750/250 mg group, all time points on Day 2 and thereafter, FIG. 6): tendency for the total score of the twelve COVID-19 symptoms to numerically improve
- Exacerbation rate (Ordinal scale deteriorated to 3 or more for the first time) (SARS-CoV-2 [2]; 750/250 mg group): 0.0%
- Number of exacerbations/number of cases to be analyzed (SARS-CoV-2 [2]; 750/250 mg group): 0/12
- EC50 (SARS-CoV-2 [3]; Severe acute respiratory syndrome coronavirus 2, VeroE6/TMPRSS2, Alpha strain (QHN001)): 310 nM
- EC50 (SARS-CoV-2 [3]; Severe acute respiratory syndrome coronavirus 2, VeroE6/TMPRSS2, Alpha strain (QHN002)): 460 nM
- EC50 (SARS-CoV-2 [3]; Severe acute respiratory syndrome coronavirus 2, VeroE6/TMPRSS2, Alpha strain (QK002)): 330 nM
- EC50 (SARS-CoV-2 [3]; Severe acute respiratory syndrome coronavirus 2, VeroE6/TMPRSS2, Beta strain (TY8-612)): 400 nM
- EC50 (SARS-CoV-2 [3]; Severe acute respiratory syndrome coronavirus 2, VeroE6/TMPRSS2, Delta strain (TY11-927-P1)): 410 nM
- EC50 (SARS-CoV-2 [3]; Severe acute respiratory syndrome coronavirus 2, VeroE6/TMPRSS2, Gamma strain (TY7-501)): 500 nM
- EC50 (SARS-CoV-2 [3]; Severe acute respiratory syndrome coronavirus 2, VeroE6/TMPRSS2, Gamma strain (TY7-503)): 430 nM
- EC50 (SARS-CoV-2 [3]; Severe acute respiratory syndrome coronavirus 2, VeroE6/TMPRSS2, Lambda strain (TY33-456)): 270 nM
- EC50 (SARS-CoV-2 [3]; Severe acute respiratory syndrome coronavirus 2, VeroE6/TMPRSS2, Mu strain (TY26-717)): 430 nM
- EC50 (SARS-CoV-2 [3]; Severe acute respiratory syndrome coronavirus 2, VeroE6/TMPRSS2, Omicron BA.1 strain (TY38-873)): 290 nM
- EC50 (SARS-CoV-2 [3]; Severe acute respiratory syndrome coronavirus 2, VeroE6/TMPRSS2, Omicron BA.1.1 strain (TY38-871)): 360 nM
- EC50 (SARS-CoV-2 [3]; Severe acute respiratory syndrome coronavirus 2, VeroE6/TMPRSS2, Omicron BA.2 strain (TY40-385)): 520 nM
- EC50 (SARS-CoV-2 [3]; Severe acute respiratory syndrome coronavirus 2, VeroE6/TMPRSS2, Omicron BA.2.12.1 strain (TY41-721)): 240 nM
- EC50 (SARS-CoV-2 [3]; Severe acute respiratory syndrome coronavirus 2, VeroE6/TMPRSS2, Omicron BA.2.75 strain (TY41-716)): 300 nM
- EC50 (SARS-CoV-2 [3]; Severe acute respiratory syndrome coronavirus 2, VeroE6/TMPRSS2, Omicron BA.4 strain (TY41-703)): 220 nM
- EC50 (SARS-CoV-2 [3]; Severe acute respiratory syndrome coronavirus 2, VeroE6/TMPRSS2, Omicron BA.5 strain (TY41-702)): 400 nM
- EC50 (SARS-CoV-2 [3]; Severe acute respiratory syndrome coronavirus 2, VeroE6/TMPRSS2, Omicron BQ.1.1 strain (TY41-796)): 480 nM
- EC50 (SARS-CoV-2 [3]; Severe acute respiratory syndrome coronavirus 2, VeroE6/TMPRSS2, Omicron XBB.1 strain (TY41-795)): 330 nM
- EC50 (SARS-CoV-2 [3]; Severe acute respiratory syndrome coronavirus 2, VeroE6/TMPRSS2, Omicron XE strain (TY41-686)): 440 nM
- EC50 (SARS-CoV-2 [3]; Severe acute respiratory syndrome coronavirus 2, VeroE6/TMPRSS2, Theta strain (TY28-444)): 290 nM
